Key:
[1] = system: 293T cells; assay: Clonogenic survival assay after BimS transfection, 293T cells; format: cell-based, human; design: protection of cells from BimS-induced death by the compound alone: dose or concentration left out as unconfirmed; settings: DASA-58 not shown; for effect on the pro-survival effect of IB5 expression: 293T cells cultured in the presence of the compound; for protection of cells from BimS-induced death by the compound alone: without IB5
Experimental: Control 293T or IB5-expressing cells were incubated with or without 27 µg/ml TEPP-46 for 3 h, then transfected with BimS cDNA in a further 24-h incubation also including TEPP-46 or vehicle. The plates were fixed and stained with crystal violet after 1 week. The total area of colonies (a measure of the total mass of proliferating cells) formed in each well from were quantified using ImageJ software; mean±SEM are shown from 3 independent experiments.
Cell viability was measured with a Countess™ Automated Cell Counter (Invitrogen) using trypan blue. For the clonogenic survival assay, 293T or MEFs cells were seeded in 6-well plates at 1×10^5 cells/well in a 2-ml volume, transfected with BimS cDNA and incubated for 24 h. Afterwards, the medium was replaced and the cells cultured for 3-4 days. Thereafter, the plates were rinsed with PBS and fixed and stained with a solution containing crystal violet (0.5% w/v) and glutaraldehyde (6% v/v) as described (Franken et al., 2006).

[2] = system: Bcl-2 family proteins; assay: Immunoblots of Bcl-2 family proteins; format: cell-based, human; settings: alone or in combination; TEPP-46 27 μM
Experimental: Levels of several Bcl-2 family proteins were unchanged following IB5 expression or incubation with TEPP-46, or both. Cell lysates from 293T cells infected with and without IB5 and incubated with and without TEPP-46 (27 μM) were separated on SDS-12% polyacrylamide gels. Bcl-2 family proteins were detected by immunoblotting. The bands were quantified using ImageJ and normalized to the control cell lysate on the leftmost lane.
293T cells were washed with PBS and lysed with PBS containing 1% NP-40. Protein concentration was determined using Pierce™ BCA reagent (ThermoFisher; 23221, 23224). 35 μg protein was loaded in each lane of 12% SDS-PAGE gels. Proteins were transferred to nitrocellulose membrane and immunoblotted with the following primary antibodies: anti-Bax antibody (Santa Cruz N20), anti-Bak antibody (Cell Signaling 3814), anti-Bid antibody (R&D Systems AF860), anti-Bim antibody (Sigma B7929), anti-Puma antibody (Cell Signaling 4976), anti-Bcl-2 antibody (Abcam 32124), anti-Bcl-xL antibody (Cell Signaling 2764) and anti-Mcl-1 (Santa Cruz S19) at 1:1000 dilution. The secondary anti-rabbit and mouse antibodies, conjugated with HRP, were obtained from Santa Cruz and were used at 1:2000 dilution. The luminescence signal was detected using ECL reagent (ThermoFisher 32106).

[3] = molecular target: T1, WT PKM2 (Homo sapiens, UniProt P14618); assay: Blue native gel electrophoresis of recombinant proteins, WT PKM2; format: binding; settings: blue native gel
T1 construct: His (N); made in house; host or cells: Escherichia coli BL21(DE3)
T1 sequence (P14618 whole entry): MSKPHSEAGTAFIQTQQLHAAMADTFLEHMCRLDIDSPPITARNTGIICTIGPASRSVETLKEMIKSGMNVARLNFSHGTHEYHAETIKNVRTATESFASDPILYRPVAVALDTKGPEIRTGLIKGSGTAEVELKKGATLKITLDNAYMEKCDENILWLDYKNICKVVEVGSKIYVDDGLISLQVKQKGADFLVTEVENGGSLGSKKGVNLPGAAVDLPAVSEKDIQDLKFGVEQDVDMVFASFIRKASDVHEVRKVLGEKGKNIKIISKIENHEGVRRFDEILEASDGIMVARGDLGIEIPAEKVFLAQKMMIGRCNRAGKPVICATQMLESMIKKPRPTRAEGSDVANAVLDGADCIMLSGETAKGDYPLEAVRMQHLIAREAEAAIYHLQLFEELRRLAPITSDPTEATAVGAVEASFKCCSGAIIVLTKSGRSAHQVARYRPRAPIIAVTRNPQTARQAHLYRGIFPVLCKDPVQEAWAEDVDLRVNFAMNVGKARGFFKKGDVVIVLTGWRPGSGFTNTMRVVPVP
Experimental: Left: A monovalent form of scFv 5, produced in E. coli, induced tetramer formation in WT PKM2 along with a bandshift whose magnitude was dependent on the input amount of scFv 5. […] Reaction volume was 20 μl.
(§1) Because glucose metabolism can influence cell survival (Fulda and Debatin, 2007; Moley and Mueckler, 2000; Munoz-Pinedo et al., 2012), The present inventors asked whether IB5 could rescue cells simply through stimulating PKM2's glycolytic activity. First, to analyze the antibody's interaction with PKM2, the present inventors produced monovalent scFv 5 and PIKM2 as recombinant proteins in E. coli and analyzed mixtures of these proteins, by blue native gel electrophoresis (FIG. 3A).

[4] = molecular target: T2, PKM2 (K270M) (Homo sapiens, UniProt P14618, K270M); assay: Blue native gel electrophoresis, PKM2 (K270M); format: binding; settings: not shown
T2 construct: His (N); made in house; host or cells: Escherichia coli BL21(DE3)
T2 sequence (P14618 whole entry K270M): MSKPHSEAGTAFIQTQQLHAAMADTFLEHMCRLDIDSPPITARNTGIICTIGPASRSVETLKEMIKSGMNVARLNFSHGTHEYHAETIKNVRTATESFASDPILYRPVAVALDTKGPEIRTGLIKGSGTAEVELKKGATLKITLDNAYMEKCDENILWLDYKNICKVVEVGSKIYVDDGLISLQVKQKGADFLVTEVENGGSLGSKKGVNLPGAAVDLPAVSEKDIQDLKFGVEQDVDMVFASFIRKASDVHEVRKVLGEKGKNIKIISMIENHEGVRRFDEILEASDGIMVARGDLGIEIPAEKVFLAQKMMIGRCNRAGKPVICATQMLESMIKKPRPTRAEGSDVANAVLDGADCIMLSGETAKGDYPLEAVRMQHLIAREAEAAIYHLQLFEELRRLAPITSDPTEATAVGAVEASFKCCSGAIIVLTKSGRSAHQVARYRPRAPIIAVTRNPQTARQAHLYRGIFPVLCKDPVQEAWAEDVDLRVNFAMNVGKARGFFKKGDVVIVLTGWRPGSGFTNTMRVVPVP
Excerpt: To begin to define the aspects of PKM2 function required for the IB5-induced anti-apoptotic effect, the present inventors reconstituted PKM2-null MEFs with WT or mutant forms of PKM2. The present inventors first analyzed the K270M mutation, reported to be catalytically dead (Bollenbach et al., 1999; Dombrauckas et al., 2005; Luo et al., 2011).

[5] = molecular target: T1, WT PKM2; assay: Pyruvate kinase assay (Kinase-Glo Plus), WT PKM2; format: biochemical; settings: PKM2 at 50 nM; ADP and PEP as substrates
Experimental: Activity was measured by Kinase-Glo® Plus Luminescent Kinase Assay kit (promega), using ADP and PEP as substrates), with PKM2 at 50 nM. Shown are values with the basal activity of PKM2 alone subtracted out.
Pyruvate kinase activity was measured by using Kinase-Glo® Plus Luminescent Kinase Assay kit (Promega). 50-100 nM of purified WT or mutant PKM2 was added in 100 μl assay buffer containing 50 mM Tris pH7.5, 100 mM KCl, 10 mM MgCl2, 200 μM PEP, 200 μM ADP, and 3% DMSO. After a 15-min incubation, Kinase-Glo Plus™ reagent (Promega Corporation, Madison, Wis., USA) was added, according to the manufacturer's instructions. In some cases, 0-40 μM fructose 1,6-bisphosphate (FBP) and 0-150 nM scFv 5 were added.

[6] = molecular target: T3, pyruvate kinase M2 (PKM2) (Homo sapiens, UniProt P14618); assay: Target protein immunoprecipitation (FLAG pull-down, mass spectrometry, immunoblot); format: binding; settings: Triton X-100 extracts of 293T cells, anti-FLAG beads
T3 construct: some intrabodies precipitated specific cellular proteins; endogenous in cells; host or cells: HEK293T (293T)
T3 sequence (P14618 whole entry): as the sequence (P14618 whole entry) above
Experimental: FIG. 1 C is a photograph of a non-limiting SDS-PAGE gel with silver stain from an immunoprecipitation assay using antibodies encoded by DNA sequences isolated from FIG. 1B. […] Intrabodies that rescued cells from BimS-induced death were chosen for pull-down analysis as described in Methods. Left panel: Triton™-X-100 (1%) cell extracts were incubated with anti-FLAG beads, then proteins eluted with 3×FLAG peptide and separated by SDS-PAGE with silver stain. Specific bands are marked with dots; some bands (e.g. at 37 and 70 kD) are nonspecific. […] The bands near 25 kD are the scFv polypeptides, whose expression levels varied.
Flag-tagged intrabody was introduced along with a tandem Strep-tag by PCR into the same lentiviral vector used for selection. 293T cells infected with the intrabody lentivirus were incubated at 30° C. for 72 h as described above. After washing with cold PBS, 5×10^8 cells were lysed for 15 minutes on ice in lysis buffer (50 mM Tris HCl, pH 7.4, 150 mM NaCl, 1 mM EDTA, 1% Triton™ X-100). Cell lysates were clarified by centrifugation for 15 minutes at 4° C. at 16,000×g. The total protein content of the soluble fraction was quantified using the BCA assay. For pull-down experiments, 10 mg of protein lysate was incubated with 200 al of EZview™ Red anti-FLAG® M2 Affini-ty Gel (Sigma-Aldrich) for 2 h at 4° C. Beads were washed 3 times in wash buffer (50 mM Tris HCl, pH 7.4, 150 mM NaCl, 1 mM EDTA, 0.1% Triton X-100). Elution was performed under native conditions by competition with 3×FLAG peptide following the manufacturer's protocol. Eluates were used for the second step purification using Strep-Tactin Superflow Plus™ [Qiagen], following the manufacturer's instructions. The final two-step purified protein was used for SDS-PAGE analysis. Bands of interest were cut out from the gel and subjected to in-gel digestion with trypsin (Promega, Fitchburg, Wis., USA) followed by MALDI TOF/TOF mass spectrometry analysis (Biomolecular and Proteomics Mass Spectrometry Facility, University of California at San Diego).

[7] = molecular target: T4, recombinant PKM1 (UniProt P14618-2 1-531); assay: in vitro experiments with recombinant proteins (blue native gel bandshift; scFv 5 failed to shift PKM1)
T4 construct: Ran as a constitutive tetramer; also called PIKM1; M1 isoform of pyruvate kinase
T4 sequence (P14618 other isoform, or with tags, fused parts or gaps): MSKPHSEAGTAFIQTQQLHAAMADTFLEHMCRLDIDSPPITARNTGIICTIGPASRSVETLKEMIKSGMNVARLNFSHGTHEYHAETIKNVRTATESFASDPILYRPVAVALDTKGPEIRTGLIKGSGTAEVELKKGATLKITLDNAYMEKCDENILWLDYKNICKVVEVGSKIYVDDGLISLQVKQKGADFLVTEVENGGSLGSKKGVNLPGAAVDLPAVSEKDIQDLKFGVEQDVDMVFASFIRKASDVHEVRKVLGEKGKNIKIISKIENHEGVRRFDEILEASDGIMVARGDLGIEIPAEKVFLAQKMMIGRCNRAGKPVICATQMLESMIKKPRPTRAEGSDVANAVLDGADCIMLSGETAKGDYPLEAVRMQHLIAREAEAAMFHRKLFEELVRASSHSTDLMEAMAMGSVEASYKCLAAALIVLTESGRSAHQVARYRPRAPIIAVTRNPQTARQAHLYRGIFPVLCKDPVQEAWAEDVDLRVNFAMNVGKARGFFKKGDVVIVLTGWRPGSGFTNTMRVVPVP
Excerpt: as §1, with “3A). […] Thus, the intrabody bound directly to PKM2, promoting its stable tetramerization, and moreover, higher input ratios of scFv:PKIM2 produced increased binding stoichiometry.” for “3A).”

| Molecule | effect on the pro-survival effect of IB5 expression [1] | protection of cells from BimS-induced death by the compound alone [1] | protein pulled down from cell extracts [6] | also measured |
| --- | --- | --- | --- | --- |
| Cn1c2cc([S+](C)[O-])sc2c2cnn(Cc3cccc(N)c3)c(=O)c21 (centres unmarked) [TEPP-46] | enhanced the pro-survival effect of IB5 expression to a modest but statistically significant extent | did not protect cells | – | levels of Bax, Bak, Bid, Bim, Puma, Bcl-2, Bcl-xL and Mcl-1 [2]: failed to change the mitochondrial levels |
| O=C(COP(=O)(O)O)[C@@H](O)[C@H](O)[C@H](O)COP(=O)(O)O [FBP, fructose 1,6-bisphosphate, reference compound] | – | – | – | tetramer formation of WT PKM2 [3]: produced the tetramer form; stable tetramer formation of PKM2 (K270M) [4]: prevented the protein from forming stable tetramers; glycolytic (pyruvate kinase) activity of WT PKM2 [5]: Stimulation of PKM2 activity |
| Nc1cccc(S(=O)(=O)N2CCCN(S(=O)(=O)c3ccc4c(c3)OCCO4)CC2)c1 [DASA-58] | enhanced the pro-survival effect of IB5 expression to a modest but statistically significant extent | did not protect cells | – | – |
| IB12: intrabody clone (scFv) that pulls down PKM2, SEQ ID NO: 1 (protein, Artificial intrabody clone 12) scFv: MAQVQLVQSGGGLVKPGGSLRLSCTASGFTFSTYWMHWFRQAPGKGLLWVSRINPDGSATIYADSVKGRFTISRDNAKNSLYLQMNSLRDEDTAVYYCARGHPLSGYPGYFDYWGQGTLVTVSSGGGGSGGGGSGVADPRLCSLSRLPSLHLLEHQQSHLHFTSGINVGAYRIYWYQQKPGSPPQFLLRYKSDSDKQQGSGVPSRFSGSRDASANAGILLISGLRSEDEADYYCAIWHSSAWVFGGGTKLTVLWGSGLASVDYKDDDDK | – | – | pulled down a 55-kD protein now identified as pyruvate kinase M2 | – |
| monovalent scFv 5 produced as recombinant protein in E. coli (scFv, also called purified scFv 5; recombinant scFv 5) scFv: MAQVQLVETGPGLVKPSETLSLRCTVSGGSFDNYYWNWIRQPPGKGLEYIGYVFPSTGATNYNPSLGSRVTISLDTSKNQFSLTLTSVTTADTAIYYCVRSGHDLWTGSTWFDPWGQWTTVTVSSGGGGSGGGGSGGGGSEIVLTQSPGTLSLSPGERATLSCRASQSVSSSYLAWYQQKPGQAPRLLIYGASSRATGIPDRFSGSGSGTDFTLTISRLEPEDIAVYYCQQRSNWPRTFGQGTKVEIKRGLGGLASVDYKDDDDK | – | – | – | binding result [7]: no binding |
| Clone 7: independent scFv isolate with DNA sequence identical to scFv 5 (protein) scFv: MAQVQLVETGPGLVKPSETLSLRCTVSGGSFDNYYWNWIRQPPGKGLEYIGYVFPSTGATNYNPSLGSRVTISLDTSKNQFSLTLTSVTTADTAIYYCVRSGHDLWTGSTWFDPWGQWTTVTVSSGGGGSGGGGSGGGGSEIVLTQSPGTLSLSPGERATLSCRASQSVSSSYLAWYQQKPGQAPRLLIYGASSRATGIPDRFSGSGSGTDFTLTISRLEPEDIAVYYCQQRSNWPRTFGQGTKVEIKRGLGGLASVDYKDDDDK | – | – | pulled down a 55-kD protein now identified as pyruvate kinase M2 | – |
